{"source": "patent US7357930B1", "about": "“Methods and formulations for targeting infectious agents bearing host cell proteins” (Infectio Recherche Inc., priority 1999, dated 2008)", "key": {"[1]": {"tested_on": "HIV-1-based luciferase reporter viruses with HXB2, AML-V or VSV-G env", "format": "cell-based"}, "1G5 cells": {"tested_on": "1G5 cells", "assay": "Cellular viability / toxicity in 1G5 cells", "format": "cell-based", "settings": "72 h, concentration range tested (0-10 μg/ml), data not shown"}, "Mono Mac 1 cell line": {"tested_on": "Mono Mac 1 cell line", "assay": "Toxicity in Mono Mac 1 cells", "format": "cell-based", "settings": "data not shown"}, "HIV-1NL4-3": {"tested_on": "HIV-1NL4-3", "assay": "AmB inhibition of HIV-1NL4-3 replication in 1G5 cells (luciferase activity)", "method": "In a second set of experiments, AmB and the virus were added simultaneously to cells and incubation was made during the first two hours of infection (open square).\nInfection was monitored by measuring the luciferase activity. […] Thereafter, an aliquot of this cell lysate (20 μl) was mixed with 100 μl of luciferase assay buffer and activity was evaluated using a microplate luminometer."}}, "note": "Like-named read-outs stand apart in the source and are kept apart here.", "data": [{"smiles": "C[C@@H]1[C@H](O)[C@@H](C)/C=C/C=C/C=C/C=C/C=C/C=C/C=C/[C@H](O[C@@H]2O[C@H](C)[C@@H](O)[C@H](N)[C@@H]2O)C[C@@H]2O[C@](O)(C[C@@H](O)C[C@@H](O)[C@H](O)CC[C@@H](O)C[C@@H](O)CC(=O)O[C@H]1C)C[C@H](O)[C@H]2C(=O)O", "note": "[AmB, amphotericin B]", "values": [{"measurement": "inhibition of infection with pseudotyped virions", "setting": "[1]", "result": "efficient to inhibit infection"}, {"measurement": "cellular viability", "setting": "1G5 cells", "result": "did not affect the cellular viability"}, {"measurement": "toxicity", "setting": "Mono Mac 1 cell line", "result": "without significant toxicity"}, {"measurement": "concentration giving complete inhibition of HIV-1NL4-3 replication", "setting": "HIV-1NL4-3; 1G5 cells pretreated with AmB", "result": 10, "unit": "μg AmB/ml"}, {"measurement": "inhibition of viral replication", "setting": "HIV-1NL4-3; AmB added to infected cells after adsorption, 10 μg AmB/ml, 72 h", "result": 40, "unit": "%"}, {"measurement": "concentration giving complete abrogation of viral replication", "setting": "HIV-1NL4-3; cell-free virus pretreated 1 h at 37° C.", "result": 5, "unit": "μg AmB/ml"}, {"measurement": "viral particles inactivated", "setting": "HIV-1NL4-3; cell-free virus pretreated 1 h at 37° C. with 1 μg AmB/ml", "result": "About 50%"}, {"measurement": "concentration giving complete inhibition of HIV-1 replication", "setting": "HIV-1NL4-3; virus and AmB added simultaneously to cells (no pretreatment)", "result": 10, "unit": "μg AmB/ml"}]}, {"smiles": "CC(C)(C)NC(=O)[C@@H]1CN(Cc2cccnc2)CCN1C[C@@H](O)C[C@@H](Cc1ccccc1)C(=O)N[C@H]1c2ccccc2C[C@H]1O", "note": "[Free indinavir, indinavir]", "values": [{"measurement": "Area under the curve of indinavir", "setting": "Brachial lymph nodes", "result": 4.9, "unit": "μmoles lipids/g tissues/h"}, {"measurement": "Area under the curve of indinavir", "setting": "Cervical lymph nodes", "result": 7.6, "unit": "μmoles lipids/g tissues/h"}, {"measurement": "Area under the curve of indinavir", "setting": "Inguinal lymph nodes", "result": 4.1, "unit": "μmoles lipids/g tissues/h"}, {"measurement": "Area under the curve of indinavir", "setting": "Liver", "result": 35.0, "unit": "μmoles lipids/g tissues/h"}, {"measurement": "Area under the curve of indinavir", "setting": "Mesenteric lymph nodes", "result": 6.4, "unit": "μmoles lipids/g tissues/h"}, {"measurement": "Area under the curve of indinavir", "setting": "Plasma", "result": 2.3, "unit": "μmoles lipids/g tissues/h"}, {"measurement": "Area under the curve of indinavir", "setting": "Popliteal lymph nodes", "result": 4.5, "unit": "μmoles lipids/g tissues/h"}, {"measurement": "Area under the curve of indinavir", "setting": "Spleen", "result": 5.3, "unit": "μmoles lipids/g tissues/h"}, {"measurement": "drug levels in lymphoid tissues", "setting": "all lymphoid tissues", "result": "very low drug levels"}]}]}
